Test results reported in patent US4552889A, “3-Mercaptomethyl-2-oxo-1-pyrrolidine acetic acids and use for hypertension” (Eli Lilly and Company, priority 1983, dated 1985).

These compounds were tested against T1, Angiotensin Converting Enzyme (Oryctolagus cuniculus, UniProt P12822) (assay: Inhibition of Angiotensin Converting Enzyme (fluorometric histidylleucine release from angiotensin I)). Conditions: enzyme from rabbit lung; human angiotensin I substrate; pH 7.5; 30 minutes at 37° C; inhibitor range 10^-4 to 10^-9 M; read-out: Concentration giving 50% Inhibition of Conversion of Angiotensin I to Angiotensin II.
T1 construct: The enzyme was isolated from rabbit lung and purified via calcium phosphate gel; from tissue; host or cells: rabbit lung
T1 sequence (P12822 34-1310): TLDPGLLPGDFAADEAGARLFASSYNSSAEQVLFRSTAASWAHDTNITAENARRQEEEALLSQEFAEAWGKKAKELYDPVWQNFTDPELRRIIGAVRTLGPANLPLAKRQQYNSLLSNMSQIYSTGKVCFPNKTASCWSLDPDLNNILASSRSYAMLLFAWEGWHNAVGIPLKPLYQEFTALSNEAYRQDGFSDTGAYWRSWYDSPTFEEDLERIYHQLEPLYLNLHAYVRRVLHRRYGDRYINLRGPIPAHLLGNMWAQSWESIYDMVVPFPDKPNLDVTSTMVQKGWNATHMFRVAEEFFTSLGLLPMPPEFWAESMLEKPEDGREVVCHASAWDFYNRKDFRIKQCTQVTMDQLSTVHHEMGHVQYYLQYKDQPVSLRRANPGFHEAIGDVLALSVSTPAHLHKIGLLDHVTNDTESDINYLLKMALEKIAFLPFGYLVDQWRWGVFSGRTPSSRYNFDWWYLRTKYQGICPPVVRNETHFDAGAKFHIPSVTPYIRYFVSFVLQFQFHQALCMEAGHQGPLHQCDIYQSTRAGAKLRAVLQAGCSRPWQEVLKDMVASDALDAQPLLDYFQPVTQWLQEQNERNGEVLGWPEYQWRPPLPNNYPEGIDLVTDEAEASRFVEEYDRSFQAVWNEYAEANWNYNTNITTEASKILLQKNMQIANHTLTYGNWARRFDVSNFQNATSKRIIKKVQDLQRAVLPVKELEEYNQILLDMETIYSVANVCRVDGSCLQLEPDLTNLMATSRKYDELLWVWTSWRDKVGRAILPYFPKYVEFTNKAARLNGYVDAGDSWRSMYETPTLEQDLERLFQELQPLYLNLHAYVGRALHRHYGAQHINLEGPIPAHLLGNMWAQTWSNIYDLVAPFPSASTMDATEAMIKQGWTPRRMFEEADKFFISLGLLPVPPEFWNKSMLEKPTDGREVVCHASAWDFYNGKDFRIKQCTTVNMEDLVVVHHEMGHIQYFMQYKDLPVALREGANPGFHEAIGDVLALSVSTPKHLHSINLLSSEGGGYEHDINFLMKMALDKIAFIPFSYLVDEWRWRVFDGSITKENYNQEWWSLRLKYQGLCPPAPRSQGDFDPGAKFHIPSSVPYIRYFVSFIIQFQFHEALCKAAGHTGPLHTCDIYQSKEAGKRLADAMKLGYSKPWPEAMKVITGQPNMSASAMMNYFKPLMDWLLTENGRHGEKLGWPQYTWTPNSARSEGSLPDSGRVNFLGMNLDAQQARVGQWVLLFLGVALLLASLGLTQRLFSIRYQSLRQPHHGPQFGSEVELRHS
Assay type: biochemical
Excerpt: The compounds are useful in the treatment of hypertension and congestive heart failure by virtue of their ability to inhibit angiotensin converting enzyme. […] Certain compounds of the present invention were examined as to their ability to inhibit angiotensin converting enzyme in the following test system.
ASSAY OF INHIBITORS OF ANGIOTENSIN CONVERTING ENZYME
The procedure for the assay of angiotensin I converting enzyme activity was essentially that described by Cheung and Cushman, Biochemica et Biophysica Acta, 293, 451-463 (1973). The enzyme was isolated from rabbit lung and purified via calcium phosphate gel, and DEAE-cellulose column chromatography. Human angiotensin I was employed as the substrate. The assay is dependent on the fluorometric measurement of the rate of release of the dipeptide histidylleucine from the substrate by the enzyme when the released dipeptide is reacted with o-phthalicdicarboxaldehyde. A standard curve is prepared with known quantities of histidylleucine.
Incubations were conducted at 37° C. in 13×100 mm. test tubes containing a final volume of 250 μl. The conditions of the assay employed were as follows: 100 μl. of 0.3 mM angiotensin I dissolved in saline-phosphate buffer (30 mM NaCl, 100 mM potassium phosphate, pH 7.5) and 50 μl. of saline-phosphate buffer (or test compound dissolved in the buffer) were allowed to stand at least three minutes at ambient temperature. The enzymic reaction was initiated by adding 100 μl. of enzyme solution containing 25 to 50 μg. protein/ml., determined by the Lowry method. The tubes were incubated for 30 minutes at 37° C. The reaction was terminated by adding 1.45 ml. of 300 mM NaOH followed with 100 μl. of 0.2 percent o-phthalicdicarboxaldehyde in methanol. After ten minutes, 200 μl. of 3M HCl were added. The final volume in the tubes was 2 ml. Fluorometric determinations (365 nm excitation and 500 nm emission) were made after 30 minutes but within 90 minutes after termination of the reaction.
The concentration of the inhibitors were adjusted so that a range of concentrations of 10^-4 to 10^-9 M was obtained in the reaction tubes. Inhibition was measured by the decrease in activity from that of control tubes without inhibitor. Activity was recorded as the molar concentration of inhibitor producing a 50 percent decrease in converting enzyme activity relative to the controls and is summarized in Table I.
For `C[C@@H](C(=O)O)N1CCC(C)(CS)C1=O` (stereo partly drawn) [Example 1, (αS)-3-(mercaptomethyl)-α,3-dimethyl-2-oxo-1-pyrrolidineacetic acid], the IC50 was 1 µM. In the case of `CCC1(CS)CCN([C@@H](C)C(=O)O)C1=O` (stereo partly drawn) [Example 2, (αS)-3-ethyl-3-(mercaptomethyl)-α-methyl-2-oxo-1-pyrrolidineacetic acid], the IC50 is reported as 2 µM. `C[C@@H](C(=O)O)N1CC[C@](CS)(Cc2ccccc2)C1=O` [Example 3, (αS,3R)-3-(mercaptomethyl)-α-methyl-2-oxo-3-benzyl-1-pyrrolidineacetic acid] gave an IC50 of 5 µM. `C[C@@H](C(=O)O)N1CC[C@@](CS)(Cc2ccccc2)C1=O` [Example 4, (S,S)-3-(mercaptomethyl)-α-methyl-2-oxo-3-benzyl-1-pyrrolidine-acetic acid] gave an IC50 greater than 100 µM.
